Laboratory results: article PMC6798786 (Brain Communications, 2019)
Structures can show the parent of a compound that is named as a salt. Where two headings read alike, the source gives them in different places.

Experiments:
[1] = tested on: scn1lab mutant zebrafish larvae; experiment: toxicity check of larvae after 90 min drug exposure (heartbeat, escape response); format: in vivo, Danio rerio; conditions: 100 µM or 250 µM; 90 min exposure
Experimental: For locomotion studies, zebrafish larvae (5 days post-fertilization) were placed into a single well of a clear flat-bottomed 96-well microplate containing embryo media. Sex determination is not possible at this stage of development. All drug screening experiments were conducted in an unbiased manner by investigators blinded to the test compounds and all files coded for post hoc analysis. The 96-well plate containing larvae was then placed inside a DanioVision box where they were allowed to acclimate (20 min; room temperature). EthoVision XT software (DanioVision, Noldus Information Technology) was used to obtain locomotion plots (10 min in duration). […] All locomotion plots were analysed for distance travelled (in millimetres) and mean velocity (in millimetres per second). After 90 min of drug exposure larvae were examined for toxic side-effects. Compounds that decreased or stopped the larva heartbeat, or reduced or eliminated the escape response when touched, were considered toxic.

[2] = target: human 5-HT2AR (Homo sapiens, UniProt P28223); experiment: radioligand binding (NIMH PDSP)
Experimental: (§1) All in vitro binding assay and Ki data studies were performed by the US National Institute of Mental Health Psychoactive Drug Screening Program (NIMH PDSP). For these studies, drugs were screened against recombinant, stably expressed human 5-HT2AR, 5-HT2BR, 5-HT2CR and H1, as described at https://pdspdb.unc.edu/pdspWeb/ ([Besnard et al., 2012]).

[3] = target: human 5-HT2BR (Homo sapiens, UniProt P41595); experiment: radioligand binding (NIMH PDSP); conditions: read-out: Ki 5-HT2BR
Experimental: as §1

[4] = target: T1, human 5-HT2CR (Homo sapiens, UniProt P28335); experiment: radioligand binding (NIMH PDSP)
T1 sequence (P28335 33-458): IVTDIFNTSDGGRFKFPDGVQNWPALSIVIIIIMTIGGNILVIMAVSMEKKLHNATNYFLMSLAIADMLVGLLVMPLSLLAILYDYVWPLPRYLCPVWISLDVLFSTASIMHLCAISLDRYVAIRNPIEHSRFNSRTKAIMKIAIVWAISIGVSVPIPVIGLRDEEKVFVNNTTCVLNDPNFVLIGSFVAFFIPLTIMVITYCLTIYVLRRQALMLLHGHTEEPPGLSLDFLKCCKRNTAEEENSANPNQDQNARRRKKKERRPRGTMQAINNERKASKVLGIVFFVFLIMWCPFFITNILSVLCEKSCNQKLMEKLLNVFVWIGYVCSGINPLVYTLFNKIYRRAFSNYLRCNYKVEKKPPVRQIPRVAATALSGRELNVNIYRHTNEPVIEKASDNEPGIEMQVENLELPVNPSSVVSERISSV
Experimental: as §1

[5] = target: human H1 (Homo sapiens, UniProt P35367); experiment: radioligand binding (NIMH PDSP); conditions: read-out: Ki H1
Experimental: as §1

[6] = tested on: scn1lab mutant zebrafish; experiment: locomotion (mean swim velocity) seizure-like behaviour assay in scn1lab mutant zebrafish larvae; format: in vivo, Danio rerio; conditions: for change in vivo at 100 µM / change in vivo at 250 µM: Danio rerio; for effect on seizure-like swim behaviour, commercially available compounds: three concentrations, 30 and 90 min exposure
Experimental: For locomotion studies, zebrafish larvae (5 days post-fertilization) were placed into a single well of a clear flat-bottomed 96-well microplate containing embryo media. Sex determination is not possible at this stage of development. All drug screening experiments were conducted in an unbiased manner by investigators blinded to the test compounds and all files coded for post hoc analysis. The 96-well plate containing larvae was then placed inside a DanioVision box where they were allowed to acclimate (20 min; room temperature). EthoVision XT software (DanioVision, Noldus Information Technology) was used to obtain locomotion plots (10 min in duration). Seizure scoring was performed, as described ([Baraban et al., 2005]). All locomotion plots were analysed for distance travelled (in millimetres) and mean velocity (in millimetres per second). After 90 min of drug exposure larvae were examined for toxic side-effects. Compounds that decreased or stopped the larva heartbeat, or reduced or eliminated the escape response when touched, were considered toxic.
For behaviour analysis, the threshold for a change in mean swim velocity ≥40% is considered significant (>1.5× SD of 250 control treated scn1lab). Unless otherwise indicated, all data in this manuscript are presented as the mean ± standard error of the mean. […] Statistically significant differences are indicated with asterisks (*P < 0.05; **P < 0.01; ***P < 0.001). […]

[7] = target: T1, human 5-HT2CR; conditions: commercially available compounds known to bind 5-HT2BR; ref Roth et al., 2000; read-out: 5-HT2CR (nM), Table S3; cited from earlier work
[8] = recombinant, stably expressed human receptor, clemizole analogues
[9] = read-out: % change in velocity, individual larva 1 (heat map)
[10] = read-out: % change in velocity, individual larva 2 (heat map)
[11] = read-out: % change in velocity, individual larva 3 (heat map)
[12] = read-out: % change in velocity, individual larva 4 (heat map)
[13] = read-out: % change in velocity, individual larva 5 (heat map)
[14] = read-out: % change in velocity, individual larva 6 (heat map)
[15] = read-out: mean velocity change from six fish, Trial 1

human 5-HT2AR, sequence (P28223 whole entry): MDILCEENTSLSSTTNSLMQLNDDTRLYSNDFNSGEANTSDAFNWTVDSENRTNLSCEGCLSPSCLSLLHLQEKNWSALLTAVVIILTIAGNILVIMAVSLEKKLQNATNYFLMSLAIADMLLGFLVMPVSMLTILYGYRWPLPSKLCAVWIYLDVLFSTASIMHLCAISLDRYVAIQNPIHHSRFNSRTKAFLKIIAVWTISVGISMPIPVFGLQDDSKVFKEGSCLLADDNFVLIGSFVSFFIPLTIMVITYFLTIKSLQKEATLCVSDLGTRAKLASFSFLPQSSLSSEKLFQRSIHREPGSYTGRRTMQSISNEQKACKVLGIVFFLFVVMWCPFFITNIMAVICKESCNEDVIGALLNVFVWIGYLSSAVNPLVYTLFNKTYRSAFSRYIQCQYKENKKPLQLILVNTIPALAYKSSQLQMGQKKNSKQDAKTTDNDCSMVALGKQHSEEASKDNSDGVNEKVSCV
human H1, sequence (P35367 whole entry): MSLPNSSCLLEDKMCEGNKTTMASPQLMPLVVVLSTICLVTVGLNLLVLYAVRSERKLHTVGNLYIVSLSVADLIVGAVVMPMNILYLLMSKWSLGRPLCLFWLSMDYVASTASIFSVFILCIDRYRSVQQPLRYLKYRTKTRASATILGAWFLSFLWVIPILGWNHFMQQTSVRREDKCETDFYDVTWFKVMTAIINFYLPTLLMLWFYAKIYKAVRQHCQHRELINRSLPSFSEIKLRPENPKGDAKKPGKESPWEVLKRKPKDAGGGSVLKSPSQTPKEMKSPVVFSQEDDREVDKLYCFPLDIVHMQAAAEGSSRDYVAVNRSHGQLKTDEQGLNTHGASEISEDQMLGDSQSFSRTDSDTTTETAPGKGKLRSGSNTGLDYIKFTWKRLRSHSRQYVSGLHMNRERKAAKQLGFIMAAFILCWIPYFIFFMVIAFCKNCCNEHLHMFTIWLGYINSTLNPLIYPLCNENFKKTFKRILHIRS
human 5-HT2BR, sequence (P41595 whole entry): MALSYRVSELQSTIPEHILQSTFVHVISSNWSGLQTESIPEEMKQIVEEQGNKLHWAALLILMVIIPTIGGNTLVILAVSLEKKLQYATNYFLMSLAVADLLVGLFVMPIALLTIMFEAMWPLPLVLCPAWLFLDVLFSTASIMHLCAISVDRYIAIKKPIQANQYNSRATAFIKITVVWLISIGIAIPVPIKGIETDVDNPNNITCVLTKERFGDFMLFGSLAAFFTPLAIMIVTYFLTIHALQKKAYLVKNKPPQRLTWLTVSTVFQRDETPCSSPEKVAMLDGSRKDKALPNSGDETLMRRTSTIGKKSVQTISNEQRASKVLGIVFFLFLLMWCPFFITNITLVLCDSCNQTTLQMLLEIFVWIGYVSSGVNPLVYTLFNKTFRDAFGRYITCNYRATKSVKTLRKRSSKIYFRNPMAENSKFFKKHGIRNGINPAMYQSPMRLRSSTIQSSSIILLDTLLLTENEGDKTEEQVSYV

Row | SMILES | toxicity in initial analogue screening [1] | Ki [2, 8] [µM] | Ki [3, 8] [µM] | Ki [4, 8] [µM] | Ki [5, 8] [µM] | effect on seizure-like swim behaviour, commercially available compounds [6] | further results
1 | Clc1ccc(Cn2c(CN3CCOCC3)nc3ccccc32)cc1 [Compound 23] | toxic | > 10 | 0.515 | > 10 | 0.034 |  | 
2 | CCN(CC)Cc1nc2ccccc2n1Cc1ccc(Cl)cc1 [Compound 24] | toxic |  |  |  |  |  | change in vivo at 100 µM [6, 9]: 67.6%; change in vivo at 250 µM [6, 9]: -100%; change in vivo at 100 µM [6, 10]: 330%; change in vivo at 250 µM [6, 10]: -100%; change in vivo at 100 µM [6, 11]: -70.1%; change in vivo at 250 µM [6, 11]: -90%; change in vivo at 100 µM [6, 12]: -28%; change in vivo at 250 µM [6, 12]: -100%; change in vivo at 100 µM [6, 13]: -30.1%; change in vivo at 250 µM [6, 13]: -100%; change in vivo at 100 µM [6, 14]: -3.9%; change in vivo at 250 µM [6, 14]: -100%; change in vivo at 100 µM [6, 15]: 3.5%; change in vivo at 250 µM [6, 15]: -98.7%; change in vivo at 100 µM ([6]; read-out: mean velocity change from six fish, Trial 2): 3.5%; Ki [2]: 1.26 µM; Ki [3]: 0.115 µM; Ki [4]: 1.41 µM; Ki [5]: 0.0037 µM
3 | CN1CCN(Cc2nc3ccccc3n2Cc2ccc(Cl)cc2)CC1 [Compound 26] |  | 0.316 | 0.02 | 0.313 | 0.0012 |  | 
4 | FC1(F)CCN(Cc2nc3ccccc3n2Cc2ccc(Cl)cc2)CC1 [Compound 27] | toxic | > 10 | > 10 | 7.15 | 0.442 |  | 
5 | Clc1ccc(Cn2c(CN3CCSC3)nc3ccccc32)cc1 [Compound 28] |  | > 10 | 0.464 | 1.08 | 0.044 |  | 
6 | CN1CCc2cccc3c2[C@H]1Cc1ccc(O)c(O)c1-3 [apomorphine, (−)-Apomorphine hydrochloride, reference compound] |  |  |  |  |  | significantly increased mean swim velocity | 
7 | CC(C)C[C@H]1C(=O)N2CCC[C@H]2[C@]2(O)O[C@](NC(=O)[C@@H]3C=C4c5cccc6[nH]c(Br)c(c56)C[C@H]4N(C)C3)(C(C)C)C(=O)N12 [bromocriptine, Bromocriptine mesylate, reference compound] |  |  |  |  |  |  | effect on seizure-like swim behaviour at 10 µM ([6]; 10 µM): significantly reduced seizure-like swim behaviour
8 | Cl.Clc1cccc(N2CCNCC2)c1 [m-CPP, reference compound] |  |  |  |  |  | biphasic response | 
9 | CC(N)Cc1c[nH]c2ccc(OCc3cccs3)cc12 (stereo not shown) [reference compound] |  |  |  |  |  | failed to reach our significance threshold | Ki [7]: 115 nM
